Measurements taken from patent US20240279220A1, “INDOLE COMPOUNDS AND METHODS OF USE” (Genzyme Corporation, priority 2021, published 2024).

Tested on: NBD1/3D
Test: Aggregation analysis using differential static light scattering (DSLS), NBD1 thermal stability
Format: binding, Human
Conditions: ΔTagg versus DMSO control; compound at 100 μM
Procedure, shortened: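 Thermal stabilisation reported as ΔTagg, i.e. aggregation temperature relative to averaged DMSO wells. Tagg came from the inflection of differential static light scattering imaged 25–70 °C while NBD1 (0.2 mg/ml, Tris pH 7.6 buffer containing ATP, MgCl2, DTT, glycerol) was ramped 1 °C/min.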

| Compound | DSLS NBD1/3D Human Stability delta-T (° C.) @ 100 (μM) |
| --- | --- |
| O=C(O)CCc1cccc(C2(c3csc(-c4cccc(Oc5c(F)cc6[nH]ccc6c5F)c4)n3)CCOCC2)c1 [Example 95, 3-(3-(4-(2-(3-((4,6-difluoro-1H-indol-5-yl)oxy)phenyl)thiazol-4-yl)tetrahydro-2H-pyran-4-yl)phenyl)propanoic acid] | B (B: 5-10° C.) |
| O=C(O)CCc1cccc(Cc2cnc(-c3cc(Oc4c(F)cc5[nH]ccc5c4CNCC(F)(F)F)ccc3F)[nH]2)c1 [Example 265, 3-(3-((2-(2-Fluoro-5-((6-fluoro-4-(((2,2,2-trifluoroethyl)amino)methyl)-1H-indol-5-yl)oxy)phenyl)-1H-imidazol-5-yl)methyl)phenyl)propanoic acid] | B (B: 5-10° C.) |
| O=C(O)CCCCCCc1cccc(Cc2nnc(-c3cccc(Oc4ccc5[nH]ccc5c4)c3)[nH]2)c1 [Example 256, 7-(3-((5-(3-((1H-indol-5-yl)oxy)phenyl)-4H-1,2,4-triazol-3-yl)methyl)phenyl)heptanoic acid] | C (C: ≤5° C.) |
| CC(O)(c1cccc(CCC(=O)O)c1)c1c[nH]c(-c2cc(C(O)c3ccc4[nH]ccc4c3)ccc2F)n1 (stereo not shown) [Example 218, 3-(3-(1-(2-(2-Fluoro-5-(hydroxy(1H-indol-5-yl)methyl)phenyl)-1H-imidazol-4-yl)-1-hydroxyethyl)phenyl)propanoic acid] | B (B: 5-10° C.) |
| CC(O)(c1cccc(CS(N)(=O)=O)c1)c1cnc(-c2cccc(Oc3c(F)cc4[nH]ccc4c3F)c2)[nH]1 (stereo not shown) [Example 209, (3-(1-(2-(3-((4,6-difluoro-1H-indol-5-yl)oxy)phenyl)-1H-imidazol-5-yl)-1-hydroxyethyl)phenyl) methanesulfonamide] | B (B: 5-10° C.) |
| CC(Cc1cccc([C@H](O)c2cnc(-c3cccc(Oc4c(F)cc5[nH]ccc5c4F)c3)[nH]2)c1)C(=O)O (stereo partly drawn) [Example 181, 3-(3-((S)-(2-(3-((4,6-Difluoro-1H-indol-5-yl)oxy)phenyl)-1H-imidazol-5-yl)(hydroxy)methyl)phenyl)-2-methylpropanoic acid] | B (B: 5-10° C.) |
| CC(O)(c1cccc(CCC(=O)O)c1)c1cnc(-c2cc(Oc3c(F)cc4[nH]ccc4c3F)ccc2F)[nH]1 (single isomer, unassigned) [Example 216A, 3-(3-(1-(2-(5-((4,6-difluoro-1H-indol-5-yl)oxy)-2-fluorophenyl)-1H-imidazol-5-yl)-1-hydroxyethyl)phenyl) propanoic acid] | B (B: 5-10° C.) |
| CC(O)(c1cccc(/C=C2\SC(=O)NC2=O)c1)c1cnc(-c2cccc(Oc3c(F)cc4[nH]ccc4c3F)c2)[nH]1 (stereo not shown) [Example 210, (Z)-5-(3-(1-(2-(3-((4,6-Difluoro-1H-indol-5-yl)oxy)phenyl)-1H-imidazol-5-yl)-1-hydroxyethyl)benzylidene)thiazolidine-2,4-dione] | B (B: 5-10° C.) |
| Cc1c(Oc2ccc(F)c(-c3nnc(Cc4cccc(C5(F)CC(C(=O)O)C5)c4)[nH]3)c2)c(F)cc2[nH]ccc12 (stereo not shown) [Example 248, 3-Fluoro-3-(3-((5-(2-fluoro-5-((6-fluoro-4-methyl-1H-indol-5-yl)oxy)phenyl)-4H-1,2,4-triazol-3-yl)methyl)phenyl)cyclobutane-1-carboxylic acid] | C (C: ≤5° C.) |
| C=C(c1cccc(CCC(=O)O)c1)c1cnc(-c2cc(Oc3c(F)cc4[nH]ccc4c3C)ccc2F)[nH]1 [Example 214, 3-(3-(1-(2-(2-Fluoro-5-((6-fluoro-4-methyl-1H-indol-5-yl)oxy)phenyl)-1H-imidazol-5-yl)vinyl)phenyl)propanoic acid] | C (C: ≤5° C.) |
| CCCC(O)(c1cccc(CCC(=O)O)c1)c1c[nH]c(-c2cc(Oc3c(F)cc4[nH]ccc4c3C)ccc2F)n1 (stereo not shown) [Example 225, 3-(3-(1-(2-(2-fluoro-5-((6-fluoro-4-methyl-1H-indol-5-yl)oxy)phenyl)-1H-imidazol-4-yl)-1-hydroxybutyl)phenyl) propanoic acid] | B (B: 5-10° C.) |
| O=C(O)Cc1cccc(Cn2ccc(-c3cccc(Oc4ccc5[nH]ccc5c4CO)c3)n2)c1 [Example 11, 2-(3-((3-(3-((4-(Hydroxymethyl)-1H-indol-5-yl)oxy)phenyl)-1H-pyrazol-1-yl)methyl)phenyl)acetic acid] | B (B: 5-10° C.) |
| CS(=O)(=O)c1c(Oc2ccc(F)c(-c3ncc(Cc4ccc5c(c4)CC(C(=O)O)C5)[nH]3)c2)c(F)cc2[nH]ccc12 (single isomer, unassigned) [Example 83A, 5-((2-(2-Fluoro-5-((6-fluoro-4-(methylsulfonyl)-1H-indol-5-yl)oxy)phenyl)-1H-imidazol-5-yl)methyl)-2,3-dihydro-1H-indene-2-carboxylic acid] | B (B: 5-10° C.) |
| CC(O)(c1cccc(CCC(=O)O)c1)c1cnc(-c2cc(Oc3cc(F)c4[nH]ccc4c3F)ccc2F)[nH]1 (stereo not shown) [Example 197, 3-(3-(1-(2-(5-((4,7-difluoro-1H-indol-5-yl)oxy)-2-fluorophenyl)-1H-imidazol-5-yl)-1-hydroxyethyl)phenyl) propanoic acid] | B (B: 5-10° C.) |
| CC(C#N)(c1cccc(CCC(=O)O)c1)c1c[nH]c(-c2cc(Oc3c(F)cc4[nH]ccc4c3F)ccc2F)n1 (stereo not shown) [Example 58, 3-(3-(1-cyano-1-(2-(5-((4,6-difluoro-1H-indol-5-yl)oxy)-2-fluorophenyl)-1H-imidazol-4-yl)ethyl)phenyl)propanoic acid] | B (B: 5-10° C.) |
| Cn1nc(-c2cccc(Oc3c(F)cc4[nH]ccc4c3S(C)(=O)=O)c2)nc1Cc1cccc(CCC(=O)O)c1 [Example 31, 3-(3-((3-(3-((6-Fluoro-4-(methylsulfonyl)-1H-indol-5-yl)oxy)phenyl)-1-methyl-1H-1,2,4-triazol-5-yl)methyl)phenyl)propanoic acid] | B (B: 5-10° C.) |
| CCc1c(Oc2cccc(-c3ncc(C(O)c4cccc(CCC(=O)O)c4)[nH]3)c2)ccc2[nH]ccc12 (stereo not shown) [Example 183, 3-(3-((2-(3-((4-Ethyl-1H-indol-5-yl)oxy)phenyl)-1H-imidazol-5-yl)(hydroxy)methyl)phenyl)propanoic acid] | B (B: 5-10° C.) |
| Cc1c(Oc2ccc(F)c(-c3nnc(Cc4ccc5[nH]c(C(=O)O)cc5c4)[nH]3)c2)c(F)cc2[nH]ccc12 [Example 246, 5-((5-(2-fluoro-5-((6-fluoro-4-methyl-1H-indol-5-yl)oxy)phenyl)-4H-1,2,4-triazol-3-yl)methyl)-1H-indole-2-carboxylic acid] | B (B: 5-10° C.) |
| O=C(O)/C=C/c1cccc(Cn2ccc(-c3cccc(Oc4ccc5[nH]ccc5c4CO)c3)n2)c1 [Example 9, (E)-3-(3-((3-(3-((4-(Hydroxymethyl)-1H-indol-5-yl)oxy)phenyl)-1H-pyrazol-1-yl)methyl)phenyl)acrylic acid] | B (B: 5-10° C.) |
| COC(c1cccc(CCC(=O)O)c1)c1cnc(-c2cc(Oc3c(F)cc4[nH]ccc4c3C)ccc2F)[nH]1 (stereo not shown) [Example 237, 3-(3-((2-(2-fluoro-5-((6-fluoro-4-methyl-1H-indol-5-yl)oxy)phenyl)-1H-imidazol-5-yl)(methoxy)methyl)phenyl) propanoic acid] | B (B: 5-10° C.) |
| CC(c1cnc(-c2cc(Oc3c(F)cc4[nH]ccc4c3CP(C)(C)=O)ccc2F)[nH]1)c1cccc(CCC(=O)O)c1F (single isomer, unassigned) [Example 133A, 3-(3-(1-(2-(5-((4-((dimethylphosphoryl)methyl)-6-fluoro-1H-indol-5-yl)oxy)-2-fluorophenyl)-1H-imidazol-5-yl)ethyl)-2-fluorophenyl)propanoic acid] | C (C: ≤5° C.) |
| CS(=O)(=O)c1c(Oc2ccc(F)c(-c3ncc(C4(c5cccc(CCC(=O)O)c5)CCC4)[nH]3)c2)c(F)cc2[nH]ccc12 [Example 46, 3-(3-(1-(2-(2-fluoro-5-((6-fluoro-4-(methylsulfonyl)-1H-indol-5-yl)oxy)phenyl)-1H-imidazol-5-yl)cyclobutyl)phenyl)propanoic acid] | A (A: T ≥ 10° C.) |
| CC(=O)NS(=O)(=O)Cc1cccc(C(C)(O)c2cnc(-c3cccc(Oc4c(F)cc5[nH]ccc5c4F)c3)[nH]2)c1 (stereo not shown) [Example 212, N-((3-(1-(2-(3-((4,6-Difluoro-1H-indol-5-yl)oxy)phenyl)-1H-imidazol-5-yl)-1-hydroxyethyl)benzyl)sulfonyl)acetamide] | B (B: 5-10° C.) |
| Cc1c(Oc2ccc(F)c(-c3nnc(Cc4cccc(C5CC(C(=O)O)C5)c4)[nH]3)c2)c(F)cc2[nH]ccc12 (stereo not shown) [Example 247, 3-(3-((5-(2-Fluoro-5-((6-fluoro-4-methyl-1H-indol-5-yl)oxy)phenyl)-4H-1,2,4-triazol-3-yl)methyl)phenyl)cyclobutane-1-carboxylic acid] | B (B: 5-10° C.) |
| CCC(O)(c1cccc(CCC(=O)O)c1)c1cnc(-c2cc(Oc3c(F)cc4[nH]ccc4c3C)ccc2F)[nH]1 (stereo not shown) [Example 223, 3-(3-(1-(2-(2-fluoro-5-((6-fluoro-4-methyl-1H-indol-5-yl)oxy)phenyl)-1H-imidazol-5-yl)-1-hydroxypropyl)phenyl) propanoic acid] | B (B: 5-10° C.) |
